Patent US20050256301A1 (The University of Queensland, priority 1998, published 2005)
Bridge positions count the residues as written; N and C are the ends. Ends that are not written are not given here. Peptide text beside a SMILES is read from it.

Experiments:
[1] = system: bovine adrenal chromaffin cells; assay type: cell-based
[2] = in vitro; settings: human, plasma
[3] = biological target: endoproteinase Glu-C (Endo Glu-C) (Staphylococcus aureus, UniProt P0C1U8); settings: 24 h, pH 8
endoproteinase Glu-C (Endo Glu-C), sequence (P0C1U8 69-336 limits assumed): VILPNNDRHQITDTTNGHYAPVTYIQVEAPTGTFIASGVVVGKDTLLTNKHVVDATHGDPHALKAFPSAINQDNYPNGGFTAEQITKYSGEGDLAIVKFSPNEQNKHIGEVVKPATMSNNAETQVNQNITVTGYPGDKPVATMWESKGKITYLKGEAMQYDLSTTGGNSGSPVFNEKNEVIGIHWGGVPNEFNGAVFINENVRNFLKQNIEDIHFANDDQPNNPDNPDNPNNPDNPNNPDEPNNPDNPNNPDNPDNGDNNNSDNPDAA

Compound: Gly Cys Cys Ser Asn Pro Val Cys His Leu Glu His Ser Asn Leu Cys Gly Gly Ala Ala Gly (GCCSNPVCHLEHSNLCGGAAG; also: cyclic, ring type and places not given here) [cMII-5, cyclic MII with five residue linker GGAAG]
- inhibition of nicotine-evoked catecholamine release, activity relative to linear MII [1]: comparable to linear MII

Compound: CC(C)C[C@@H]1NC(=O)[C@H](CC(N)=O)NC(=O)[C@H](CO)NC(=O)[C@H](Cc2c[nH]cn2)NC(=O)[C@H](CCC(=O)O)NC(=O)[C@H](CC(C)C)NC(=O)[C@H](Cc2c[nH]cn2)NC(=O)[C@@H]2CSSC[C@@H]3NC(=O)CNC(=O)CNC(=O)[C@H](C)NC(=O)[C@H](C)NC(=O)CNC(=O)[C@H](C)NC(=O)CNC(=O)CNC(=O)[C@H](CSSC[C@H](NC3=O)C(=O)N[C@@H](CO)C(=O)N[C@@H](CC(N)=O)C(=O)N3CCC[C@H]3C(=O)N[C@@H](C(C)C)C(=O)N2)NC1=O [cMII-7, Gly Cys Cys Ser Asn Pro Val Cys His Leu GIu His Ser Asn Leu Cys Gly Gly Ala Gly Ala Ala Gly] (cyclo(AAGGCCSNPVCHLEHSNLCGGAG); disulfide 5-11, 6-19)
- inhibition of nicotine-evoked catecholamine release, activity relative to linear MII [1]: comparable to linear MII
- remaining at 24 h [2]: ~90%

Compound: CC(C)C[C@@H]1NC(=O)[C@H](CC(N)=O)NC(=O)[C@H](CO)NC(=O)[C@H](Cc2c[nH]cn2)NC(=O)[C@H](CCC(=O)O)NC(=O)[C@H](CC(C)C)NC(=O)[C@H](Cc2c[nH]cn2)NC(=O)[C@@H]2CSSC[C@@H]3NC(=O)CNC(=O)CNC(=O)CNC(=O)[C@H](C)NC(=O)[C@H](C)NC(=O)CNC(=O)CNC(=O)[C@H](CSSC[C@H](NC3=O)C(=O)N[C@@H](CO)C(=O)N[C@@H](CC(N)=O)C(=O)N3CCC[C@H]3C(=O)N[C@@H](C(C)C)C(=O)N2)NC1=O [cMII-6] (cyclo(AAGGGCCSNPVCHLEHSNLCGG); disulfide 6-12, 7-20)
- inhibition of nicotine-evoked catecholamine release, activity relative to linear MII [1]: comparable to linear MII
- remaining at 24 h [2]: ~90%
- intact peptide remaining with Endo Glu-C [3]: remains entirely intact
